# From ChEMBL document CHEMBL4373747 (ACS Med Chem Lett, 2020)
# Experiments:
# [1] = biological target: T1, Protein deacetylase HDAC6 (Homo sapiens, UniProt Q9UBN7); assay: Inhibition of recombinant full length human HDAC6 expressed in baculovirus infected Sf9 cells using FAM-RHKK-Ac as substrate incubated for 5 hrs by electrophoretic mobility shift assay
# T1 sequence (Q9UBN7 whole entry): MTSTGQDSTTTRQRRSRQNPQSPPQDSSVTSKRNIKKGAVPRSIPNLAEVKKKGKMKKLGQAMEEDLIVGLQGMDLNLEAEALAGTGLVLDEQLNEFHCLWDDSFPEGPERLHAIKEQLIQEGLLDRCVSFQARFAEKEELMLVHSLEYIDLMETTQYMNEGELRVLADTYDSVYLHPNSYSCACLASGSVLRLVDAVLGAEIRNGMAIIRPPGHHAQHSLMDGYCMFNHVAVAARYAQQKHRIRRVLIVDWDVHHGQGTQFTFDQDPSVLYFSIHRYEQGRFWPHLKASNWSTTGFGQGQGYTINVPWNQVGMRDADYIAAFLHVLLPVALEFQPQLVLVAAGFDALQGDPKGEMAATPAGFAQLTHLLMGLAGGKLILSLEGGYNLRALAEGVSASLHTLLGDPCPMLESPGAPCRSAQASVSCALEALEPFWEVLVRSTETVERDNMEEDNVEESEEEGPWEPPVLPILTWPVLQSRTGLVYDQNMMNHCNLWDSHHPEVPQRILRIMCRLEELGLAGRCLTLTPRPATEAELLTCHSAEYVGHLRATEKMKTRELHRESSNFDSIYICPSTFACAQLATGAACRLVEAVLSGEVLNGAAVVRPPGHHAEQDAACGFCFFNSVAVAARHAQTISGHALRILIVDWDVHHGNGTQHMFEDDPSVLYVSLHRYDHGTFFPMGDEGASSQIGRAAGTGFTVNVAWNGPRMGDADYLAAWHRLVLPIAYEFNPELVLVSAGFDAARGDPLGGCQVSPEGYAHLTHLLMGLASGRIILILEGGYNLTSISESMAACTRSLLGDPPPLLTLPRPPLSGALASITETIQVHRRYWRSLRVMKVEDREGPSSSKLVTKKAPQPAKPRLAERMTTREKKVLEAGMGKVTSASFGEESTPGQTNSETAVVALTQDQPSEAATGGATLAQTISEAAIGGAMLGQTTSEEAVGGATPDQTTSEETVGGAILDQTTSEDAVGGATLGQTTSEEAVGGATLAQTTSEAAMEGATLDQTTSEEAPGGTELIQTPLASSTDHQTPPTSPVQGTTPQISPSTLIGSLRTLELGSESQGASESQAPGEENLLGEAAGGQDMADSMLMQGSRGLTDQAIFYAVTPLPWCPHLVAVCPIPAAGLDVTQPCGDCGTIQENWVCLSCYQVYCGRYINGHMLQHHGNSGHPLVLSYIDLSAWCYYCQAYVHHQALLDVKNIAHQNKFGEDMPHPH
# [2] = Cmax in NSG mouse; assay type: ADME; conditions: in vivo
# MV4-11 [3] = assay: Induction of apoptosis in human MV4-11 cells assessed as early apoptotic cells at 4 uM incubated for 18 hrs by annexin V FITC and PI based flow cytometry (reference value: 19.46 to 22.17 %); assay type: functional
# MV4-11 [4] = assay: Induction of apoptosis in human MV4-11 cells assessed as early apoptotic cells at 0.25 uM incubated for 18 hrs by annexin V FITC and PI based flow cytometry (reference value: 19.46 to 22.17 %); assay type: functional
structure (smiles),measurement,setting,value
CC(C)(C)c1ccc(C(=O)Nc2ccc(C(=O)NO)cc2)cc1,IC50,[1],24.4 nM
same,Cmax,[2],10.7 µM
same,Activity,MV4-11 [3],32.14%
same,Activity,MV4-11 [4],17.82%
